Measured values as given in the supplement of paper PMC11451515.

Test system: SEM cells
Assay: cell viability relative to DMSO control; higher = less cytotoxic
Settings: 48 h
How it was run: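 NOMO1 or SEM cells were plated at 500 cells/well and P12-Ichikawa cells at 1000 cells/well in 1536-well plates (5 μl), after each leukemia line had been adapted for at least four passages in each medium. Pin dosing delivered library compounds in DMSO at 11 threefold concentrations, 47 μM to 0.79 nM. CellTiter-Glo One luminescence was read after 48 h at 37°C. Viability is reported as a per-plate percentage of DMSO wells, with cell-free wells as background.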

[1] = HPLM + 10% dialyzed FBS, 0.000781 µM
[2] = HPLM + 10% dialyzed FBS, 0.00234 µM
[3] = HPLM + 10% dialyzed FBS, 0.00702 µM
[4] = HPLM + 10% dialyzed FBS, 0.0211 µM
[5] = HPLM + 10% dialyzed FBS, 0.0632 µM
[6] = HPLM + 10% dialyzed FBS, 0.19 µM
[7] = HPLM + 10% dialyzed FBS, 0.569 µM
[8] = HPLM + 10% dialyzed FBS, 1.71 µM
[9] = HPLM + 10% dialyzed FBS, 5.12 µM
[10] = HPLM + 10% dialyzed FBS, 15.4 µM
[11] = HPLM + 10% dialyzed FBS, 46.1 µM
[12] = RPMI 5 mM glucose + 10% FBS, 0.000781 µM
[13] = RPMI 5 mM glucose + 10% FBS, 0.00234 µM
[14] = RPMI 5 mM glucose + 10% FBS, 0.00702 µM
[15] = RPMI 5 mM glucose + 10% FBS, 0.0211 µM
[16] = RPMI 5 mM glucose + 10% FBS, 0.0632 µM
[17] = RPMI 5 mM glucose + 10% FBS, 0.19 µM
[18] = RPMI 5 mM glucose + 10% FBS, 0.569 µM
[19] = RPMI 5 mM glucose + 10% FBS, 1.71 µM
[20] = RPMI 5 mM glucose + 10% FBS, 5.12 µM
[21] = RPMI 5 mM glucose + 10% FBS, 15.4 µM
[22] = RPMI 5 mM glucose + 10% FBS, 46.1 µM
[23] = RPMI 5 mM glucose + 10% dialyzed FBS, 0.000781 µM
[24] = RPMI 5 mM glucose + 10% dialyzed FBS, 0.00234 µM
[25] = RPMI 5 mM glucose + 10% dialyzed FBS, 0.00702 µM
[26] = RPMI 5 mM glucose + 10% dialyzed FBS, 0.0211 µM
[27] = RPMI 5 mM glucose + 10% dialyzed FBS, 0.0632 µM
[28] = RPMI 5 mM glucose + 10% dialyzed FBS, 0.19 µM
[29] = RPMI 5 mM glucose + 10% dialyzed FBS, 0.569 µM
[30] = RPMI 5 mM glucose + 10% dialyzed FBS, 1.71 µM
[31] = RPMI 5 mM glucose + 10% dialyzed FBS, 5.12 µM
[32] = RPMI 5 mM glucose + 10% dialyzed FBS, 15.4 µM
[33] = RPMI 5 mM glucose + 10% dialyzed FBS, 46.1 µM

SMILES | cell viability [1] | cell viability [2] | cell viability [3] | cell viability [4] | cell viability [5] | cell viability [6] | cell viability [7] | cell viability [8] | cell viability [9] | cell viability [10] | cell viability [11] | cell viability [12] | cell viability [13] | cell viability [14] | cell viability [15] | cell viability [16] | cell viability [17] | cell viability [18] | cell viability [19] | cell viability [20] | cell viability [21] | cell viability [22] | cell viability [23] | cell viability [24] | cell viability [25] | cell viability [26] | cell viability [27] | cell viability [28] | cell viability [29] | cell viability [30] | cell viability [31] | cell viability [32] | cell viability [33]
Cc1ccc(C(=O)Nc2ccc([S+](=O)([O-])O)c3cc([S+](=O)([O-])O)cc([S+](=O)([O-])O)c23)cc1NC(=O)c1cccc(NC(=O)Nc2cccc(C(=O)Nc3cc(C(=O)Nc4ccc([S+](=O)([O-])O)c5cc([S+](=O)([O-])O)cc([S+](=O)([O-])O)c45)ccc3C)c2)c1 | 96.8% | 105% | 96.2% | 100% | 115% | 91.4% | 101% | 93.8% | 68.5% | 44.4% | 33.1% | 109% | 128% | 120% | 121% | 113% | 112% | 100% | 115% | 52.7% | 21.2% | 22.7% | 85% | 97.2% | 100% | 88.6% | 98.4% | 86% | 94.9% | 86.5% | 55.1% | 23.9% | 23.7%
NC[C@H](O)c1ccc(O)c(O)c1 | 93.3% | 102% | 111% | 101% | 95.9% | 98.2% | 92% | 85.4% | 92.8% | 84.5% | 78.4% | 84% | 115% | 102% | 109% | 97.7% | 100% | 97% | 89.5% | 97.5% | 82.8% | 81.5% | 84.9% | 103% | 88.5% | 103% | 104% | 99.1% | 100% | 91.9% | 96.7% | 96.9% | 72.9%
CC1(C)[C@@H](O)CC[C@@]2(C)[C@H]1CC[C@]3(C)[C@@H]2C(=O)\C=C/4[C@@H]5C[C@](C)(CC[C@]5(C)CC[C@@]34C)C(O)=O | 99.3% | 98.8% | 99.7% | 104% | 105% | 93.9% | 99% | 110% | 99.3% | 90.7% | 86.9% | 98.4% | 113% | 108% | 108% | 101% | 113% | 97.3% | 108% | 99.6% | 101% | 86.1% | 100% | 92.7% | 112% | 109% | 98.6% | 108% | 114% | 103% | 90.2% | 107% | 102%
Cc1nc(-c2ccc(-c3ccc(C(=O)N4CCc5cc6c(cc54)C4(CCN(C)CC4)CO6)cc3)c(C)c2)no1 | 88.4% | 104% | 108% | 106% | 119% | 97.4% | 114% | 108% | 117% | 136% | 123% | 114% | 102% | 107% | 105% | 99.3% | 112% | 114% | 101% | 117% | 107% | 113% | 108% | 99.7% | 103% | 95.4% | 92.5% | 96% | 104% | 96.5% | 92.8% | 100% | 103%
CCC[C@H](Nc1nc(-c2ccc(NC(=O)NCC)c(OC)c2)ncc1C)c1cccnc1 | 87.7% | 108% | 94% | 112% | 27.2% | 28.4% | 26.7% | 19.4% | 12.9% | 13.1% | 10.7% | 4.71% | 78.8% | 84.3% | 114% | 16.5% | 21% | 17.2% | 10.4% | 6.57% | 6.69% | 3.95% | 102% | 105% | 87.1% | 134% | 23.6% | 23.7% | 24.9% | 10.9% | 7.58% | 7.31% | 4.35%
OC1CCC(CC1)N2\C=N/C3=C(C2=N)C(=C([N]3CC4=CC=CC=C4)C5=CC=CC=C5)C6=CC=CC=C6 (configuration not stated) | 117% | 123% | 134% | 116% | 113% | 98.9% | 46.8% | 47.2% | 38.6% | 39% | 41% | 110% | 117% | 131% | 108% | 102% | 97.6% | 47.4% | 39.4% | 37% | 37.8% | 24% | – | – | – | – | – | – | – | – | – | – | –
C=C1CCC2[C@](C)(CO)C(O)CC[C@]2(C)C1C/C=C1/C(=O)OCC1O (some centres not stated) | 122% | 122% | 112% | 126% | 116% | 111% | 109% | 105% | 103% | 117% | 93.3% | 125% | 115% | 118% | 97.8% | 108% | 99.2% | 88.3% | 87.1% | 81.5% | 84.8% | 85.6% | 129% | 120% | 121% | 115% | 113% | 116% | 109% | 106% | 109% | 96.3% | 92.3%
CNC(=O)c1nn(C)c2c1C(C)(C)Cc1cnc(Nc3ccc(N4CCN(C)CC4)cc3)nc1-2 | 108% | 101% | 103% | 93% | 89.1% | 64.6% | 39.3% | 16% | 12% | 7.99% | 7.09% | 115% | 97.1% | 113% | 104% | 86.5% | 67.4% | 48.8% | 13.8% | 8.18% | 5.66% | 2.21% | 97.9% | 101% | 101% | 110% | 78.6% | 69.5% | 47.2% | 16.8% | 9.79% | 7.03% | 4.75%
COc1cc2c(cc1OC)CN(CCc1ccc(NC(=O)c3cccc4c(=O)c5cccc(OC)c5[nH]c34)cc1)CC2 | 84.4% | 98.8% | 103% | 105% | 106% | 109% | 105% | 105% | 36.4% | 8.23% | 5.66% | 91.1% | 85.9% | 82.9% | 90.8% | 77.2% | 83.5% | 85.2% | 9.76% | 8.45% | 5.57% | 4.07% | 108% | 112% | 104% | 112% | 122% | 116% | 94.3% | 24.4% | 11.2% | 5.96% | 3.77%
Cc1nnc(C(C)C)n1[C@@H]1C[C@H]2CC[C@@H](C1)N2CC[C@H](NC(=O)C1CCC(F)(F)CC1)c1ccccc1 | 83.1% | 90.9% | 95.8% | 95% | 77.2% | 98.3% | 105% | 98% | 102% | 64.9% | 57.1% | 78.9% | 74.3% | 82.2% | 93.4% | 86.1% | 103% | 84.9% | 85.6% | 86.1% | 43.6% | 38.6% | 84.6% | 90.5% | 101% | 90.1% | 88.9% | 103% | 87.8% | 103% | 105% | 51.8% | 40.2%
COc1ccc(/C=C/C(=O)Nc2ccccc2C(=O)O)cc1OC | – | – | – | – | – | – | – | – | – | – | – | 109% | 140% | 118% | 130% | 99.4% | 97.5% | 110% | 116% | 125% | 106% | 104% | 94.7% | 115% | 110% | 108% | 35.1% | 115% | 96.7% | 110% | 116% | 129% | 96.7%
O=C1\C=C(OC2=C(C=CC=C12)C3=CC=CC4=C3SC5=C4C=CC=C5)\N6CCOCC6 | 110% | 103% | 121% | 120% | 124% | 115% | 107% | 104% | 96.9% | 89.9% | 91.2% | 133% | 104% | 105% | 138% | 109% | 112% | 112% | 114% | 73% | 60.2% | 62.7% | 129% | 109% | 116% | 123% | 116% | 123% | 122% | 113% | 78.5% | 75.7% | 76%
N#Cc1cc(NC(=O)Nc2nnc(-c3ccncc3)s2)ccc1-c1cn[nH]c1 | – | – | – | – | – | – | – | – | – | – | – | 96% | 111% | 93% | 85.1% | 96.4% | 106% | 107% | 105% | 87.9% | 93.1% | 89.2% | 107% | 120% | 128% | 107% | 98.6% | 129% | 113% | 122% | 127% | 93% | 108%
CCOc1cc(C(=O)Nc2ccc(Cl)c(-c3nc4ccccc4[nH]3)c2)cc(OCC)c1OCC | 70.1% | 76% | 91.4% | 92.8% | 92% | 87.5% | 89.3% | 91% | 85.2% | 17.4% | 62.4% | 76.8% | 74.7% | 93.6% | 92.7% | 94.2% | 94.4% | 109% | 94.5% | 93.5% | 9.91% | 48.1% | 73.9% | 77.1% | 91.8% | 95.4% | 85.6% | 93.5% | 92.6% | 86.6% | 77.7% | 16.8% | 46.1%
C/C1=C/C(=C(/CNC(=O)C2=CC(=CC3=C2C=N[N]3C4CCCC4)C5=CC=C(CN6CCOCC6)C=C5)C(=O)N1)C | 113% | 122% | 126% | 23.4% | 117% | 127% | 115% | 115% | 113% | 106% | 7.3% | 97.8% | 103% | 116% | 18.1% | 106% | 96.5% | 83.4% | 93.2% | 92% | 67.5% | 4.27% | 116% | 124% | 132% | 22.7% | 130% | 122% | 118% | 129% | 128% | 126% | 6.82%
